The record followed here is US20240262826A1, “WILD TYPE KIT INHIBITORS” (Blueprint Medicines Corporation, priority 2022, published 2024).

Series [1] addresses wild type c-kit (Homo sapiens (Human), UniProt P10721). The series can be described thus: PathScan phospho c-kit (Tyr719) sandwich ELISA in SCF-stimulated M-07e cells (pKIT assay). It counts as cell-based. Particulars: ELISA assay (values not marked *). An outline of the steps: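 Tyr719-phosphorylated c-kit was measured by colorimetric (TMB) sandwich ELISA in lysates of M-07e cells. Cells were starved 4 h without serum or GM-CSF, dosed 60 min at 37 °C with compound (8 points, duplicate, 0.25% DMSO), and stimulated 10 min with human SCF (500 ng/mL as added). IC50 values came from 4-parameter logistic regression.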

Series [2] addresses human P-glycoprotein (P-gp, MDR1) (Homo sapiens (Human), UniProt P08183). The experiment in a line: MDCK-MDR1 cell monolayer drug transport assay (P-gp efflux ratio). The class given is in vitro ADME. Conditions: pH 7.4, MDCK-MDR1 cells, 1 uM concentration of compound, read-out: Pgp Efflux Ratio, 1 uM. As for the experimental part: The potential for compounds prepared according to the examples to be substrates of P-gp was evaluated using in vitro on Multidrug Resistance Mutation 1-Mardin-Darby Canine Kidney (MDCK-MDR1)) (Mardin-Darby Canine Kidney) cell monolayers overexpressing P-gp grown on permeable supports.
Preparation for cell seeding: MDCK-MDR1 cell culture medium consisting of Dulbecco's Modified Eagle's Medium (DMEM) with high glucose and L-glutamine supplemented with: 10% FBS, 0.1 mg/mL of streptomycin, 0.6 μg/mL of Kanamycin sulfate and 100 units of penicillin was prepared. 50 μL of culture medium was added to each well of the Transwell insert. The Transwell insert was removed from the reservoir and 25 mL of culture medium was added. After incubation at 37° C., 5% CO2 for 1 hour, the plates were ready for cell seeding. The cells were cultivated in T-75 flasks in a cell culture incubator set at 37° C., 5% CO2, 95% relative humidity until they reached 80-90% confluence before detaching and splitting. The cultivated cells were rinsed in T-75 flasks with 5 mL PBS and aspirated off, and then 1.5 mL trypsin/EDTA was added and incubated at 37° C. for approximately 5 to 10 minutes or until the cells detach and float. The trypsin/EDTA was inactived by adding excess serum containing medium. The cell suspension was transferred to a conical tube and the cells pelleted by centrifugation at 120×g for 10 minutes. The cells were resuspended in seeding medium at a density of 1.56×10^6 cells/mL. This cell concentration was used to seed 5.45×10^5 cells/cm^2.
Seeding and feeding of MDCK-MDR1 cells into transwell plates: 50 μL of the above cell suspension was added to each well of a previously prepared Transwell plate and the plate was incubated for 4-8 days, replacing the medium every other day beginning no sooner than 48 hours after initial plating. The medium must be replaced on the day before conducting the experiment, and the procedure for medium changes was carried out as follows. The plate was removed from the incubator and placed in a hood. The medium was aspirated from a reservoir and each Transwell was inserted. 100 μL of culture medium was added to each well of the Transwell inserts and 25 mL of culture medium to reservoir tray. The plate was returned to the incubator.
Assessment of cell monolayer integrity: When the 4-day cultured MDCK-MDR1 cells reached confluence and were differentiated, the medium was removed from the reservoir and Transwell inserts. 100 μL of prewarmed culture medium was added to each transwell insert and 25 mL was added to the reservoir tray. The electrical resistance across the monolayer was measured using a Millicell Epithelial Volt-Ohm measuring system. The electrical resistance for each well was measured and then the plate was returned to the incubator. TEER values were calculated using this formula: TEER measurement (ohms)×Area of membrane (cm2)=TEER value (ohm cm2). Any monolayer with a TEER value <42 ohms·cm2, indicating poor monolayer formation, was discarded.
Performing the drug transport assay: The MDCK-MDR1 plate was removed from the incubator and the monolayer was washed, exchanging the volume two times using pre-warmed HBSS (Hank's balanced salt solution) (10 mM HEPES, pH 7.4). The plate was then incubated at 37° C. for 30 minutes. A 1 μM compound working solution was prepared as follows: Added […] of stock solution (10 mM in DMSO) of test compound and control compounds (Metoprolol, Prazosin and Imatinib) in one 96 well plate, then added 98 μL of DMSO into the same well to obtain 0.2 mM stock solutions (note a stock solution was further diluted 1:10 for eventually making a 0.1 uM compound working solution). Transfered 3 μL of 0.2 mM solution into 597 μL of transport buffer in one 96 well plate to prepare the 1 μM compound working solution. The plate was shaken at 1000 rpm for 10 min.

Sequence of wild type c-kit (P10721 26-976): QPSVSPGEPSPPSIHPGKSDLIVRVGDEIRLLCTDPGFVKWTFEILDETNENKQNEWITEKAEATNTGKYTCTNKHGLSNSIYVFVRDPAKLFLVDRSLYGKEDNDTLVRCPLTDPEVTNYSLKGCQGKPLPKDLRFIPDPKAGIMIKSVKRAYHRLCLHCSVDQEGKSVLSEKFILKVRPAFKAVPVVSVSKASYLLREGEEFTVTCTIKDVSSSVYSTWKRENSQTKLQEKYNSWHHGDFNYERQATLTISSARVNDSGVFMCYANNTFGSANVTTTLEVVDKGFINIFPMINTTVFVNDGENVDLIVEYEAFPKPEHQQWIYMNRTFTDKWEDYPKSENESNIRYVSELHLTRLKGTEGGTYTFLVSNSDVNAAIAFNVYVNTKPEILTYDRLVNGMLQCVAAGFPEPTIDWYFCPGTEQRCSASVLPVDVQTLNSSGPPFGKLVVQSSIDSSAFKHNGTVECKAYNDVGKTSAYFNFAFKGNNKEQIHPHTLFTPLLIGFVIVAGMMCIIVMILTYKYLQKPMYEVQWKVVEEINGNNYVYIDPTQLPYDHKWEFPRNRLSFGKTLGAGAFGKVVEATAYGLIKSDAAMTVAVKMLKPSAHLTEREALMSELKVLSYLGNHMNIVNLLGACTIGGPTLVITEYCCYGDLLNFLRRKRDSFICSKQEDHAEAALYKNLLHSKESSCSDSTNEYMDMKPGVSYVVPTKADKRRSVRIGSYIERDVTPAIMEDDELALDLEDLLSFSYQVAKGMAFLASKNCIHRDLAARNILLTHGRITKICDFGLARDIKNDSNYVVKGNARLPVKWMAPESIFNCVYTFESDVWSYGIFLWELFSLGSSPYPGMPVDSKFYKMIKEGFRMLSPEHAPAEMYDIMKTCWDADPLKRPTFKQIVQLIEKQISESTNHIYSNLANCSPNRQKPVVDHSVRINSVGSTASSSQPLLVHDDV
Sequence of human P-glycoprotein (P-gp, MDR1) (P08183 whole entry): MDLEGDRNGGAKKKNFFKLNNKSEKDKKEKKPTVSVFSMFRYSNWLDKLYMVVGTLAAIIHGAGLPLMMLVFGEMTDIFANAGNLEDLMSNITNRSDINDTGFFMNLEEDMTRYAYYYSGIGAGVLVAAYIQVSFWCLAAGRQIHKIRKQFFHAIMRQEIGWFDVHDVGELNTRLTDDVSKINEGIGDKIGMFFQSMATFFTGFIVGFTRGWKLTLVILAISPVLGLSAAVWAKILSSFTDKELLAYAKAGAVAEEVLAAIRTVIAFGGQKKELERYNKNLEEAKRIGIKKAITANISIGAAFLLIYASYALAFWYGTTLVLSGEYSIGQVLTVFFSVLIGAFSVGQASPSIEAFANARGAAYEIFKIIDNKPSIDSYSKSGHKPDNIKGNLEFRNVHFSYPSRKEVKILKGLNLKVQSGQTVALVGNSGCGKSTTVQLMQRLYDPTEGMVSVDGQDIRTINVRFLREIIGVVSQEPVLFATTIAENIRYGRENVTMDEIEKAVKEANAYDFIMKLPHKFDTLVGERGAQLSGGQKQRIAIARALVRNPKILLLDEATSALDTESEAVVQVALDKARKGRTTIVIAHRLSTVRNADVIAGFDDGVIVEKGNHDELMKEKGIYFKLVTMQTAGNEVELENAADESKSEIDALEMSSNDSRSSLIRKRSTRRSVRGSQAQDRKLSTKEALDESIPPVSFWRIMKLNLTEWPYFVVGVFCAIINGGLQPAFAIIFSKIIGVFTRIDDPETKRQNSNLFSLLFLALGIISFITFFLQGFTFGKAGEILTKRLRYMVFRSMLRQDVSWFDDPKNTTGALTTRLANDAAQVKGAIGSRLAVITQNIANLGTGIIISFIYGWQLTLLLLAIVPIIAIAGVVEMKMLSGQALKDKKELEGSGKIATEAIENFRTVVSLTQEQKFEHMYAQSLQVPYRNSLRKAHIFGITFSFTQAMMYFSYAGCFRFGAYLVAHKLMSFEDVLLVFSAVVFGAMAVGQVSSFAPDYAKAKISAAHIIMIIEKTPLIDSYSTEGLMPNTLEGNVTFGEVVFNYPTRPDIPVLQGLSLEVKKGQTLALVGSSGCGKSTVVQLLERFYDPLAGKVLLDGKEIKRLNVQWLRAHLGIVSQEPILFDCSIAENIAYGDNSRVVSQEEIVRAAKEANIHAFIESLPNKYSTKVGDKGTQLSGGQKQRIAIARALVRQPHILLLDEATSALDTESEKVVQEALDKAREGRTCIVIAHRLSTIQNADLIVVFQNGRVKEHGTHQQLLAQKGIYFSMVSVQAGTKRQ

With `Cc1ccc(-n2nnc(C3CC3)n2)cc1NC(=O)c1cnn2cc(-c3cnn(CC4(O)CCOCC4)c3)cc(F)c12` [Example 277, N-(5-(5-cyclopropyl-2H-tetrazol-2-yl)-2-methylphenyl)-4-fluoro-6-(1-((4-hydroxytetrahydro-2H-pyran-4-yl)methyl)-1H-pyrazol-4-yl)pyrazolo[1,5-a]pyridine-3-carboxamide], the IC50 in series [1] came out at 0.5 nM. Also, in series [2], the efflux ratio at 2 h, 1 µM was determined as 3. In the same order, the values of `Cc1ccc(-c2nnn(C3CC(F)(F)C3)n2)cc1NC(=O)c1cnn2ccc(NCCO)cc12` [Example 101, N-(5-(2-(3,3-difluorocyclobutyl)-2H-tetrazol-5-yl)-2-methylphenyl)-5-((2-hydroxyethyl)amino)pyrazolo[1,5-a]pyridine-3-carboxamide] are 5.2 nM and 16. Consider `COC(=O)N1CC(n2nnc(-c3ccc(C)c(NC(=O)c4cnn5ccc(NCC(C)(C)O)cc45)c3)n2)C1` [Example 89, methyl 3-(5-(3-(5-((2-hydroxy-2-methylpropyl)amino)pyrazolo[1,5-a]pyridine-3-carboxamido)-4-methylphenyl)-2H-tetrazol-2-yl)azetidine-1-carboxylate], for which, in series [1], the IC50 worked out at 71 nM. For the same compound, the efflux ratio at 2 h, 1 µM in series [2] is 43.1. Taken in the same sequence, the figures for `COC[C@@H]1CCN1c1ccn2ncc(C(=O)Nc3cc(-c4nnn(C5CN(C(=O)OC)C5)n4)ccc3C)c2c1` (stereo in doubt) [Example 85, methyl (S)-3-(5-(3-(5-(2-(methoxymethyl)azetidin-1-yl)pyrazolo[1,5-a]pyridine-3-carboxamido)-4-methylphenyl)-2H-tetrazol-2-yl)azetidine-1-carboxylate or methyl (R)-3-(5-(3-(5-(2-(methoxymethyl)azetidin-1-yl)pyrazolo[1,5-a]pyridine-3-carboxamido)-4-methylphenyl)-2H-tetrazol-2-yl)azetidine-1-carboxylate] were 25 nM and 7.1. Taken in the same sequence, the figures for `COC[C@@](C)(O)Cn1cc(-c2ccn3ncc(C(=O)Nc4cc(-c5nnn(C6CC6)n5)ccc4C)c3c2)cn1` (single isomer, unassigned) [Example 268, (S)-N-(5-(2-cyclopropyl-2H-tetrazol-5-yl)-2-methylphenyl)-5-(1-(2-hydroxy-3-methoxy-2-methylpropyl)-1H-pyrazol-4-yl)pyrazolo[1,5-a]pyridine-3-carboxamide or (R)-N-(5-(2-cyclopropyl-2H-tetrazol-5-yl)-2-methylphenyl)-5-(1-(2-hydroxy-3-methoxy-2-methylpropyl)-1H-pyrazol-4-yl)pyrazolo[1,5-a]pyridine-3-carboxamide] were 1.6 nM and 5.2. In the same order, the values of `COC(=O)N1CC(n2nnc(-c3ccc(C)c(NC(=O)c4cnn5ccc(OCCC(C)(C)O)cc45)c3)n2)C1` [Example 65, methyl 3-(5-(3-(5-(3-hydroxy-3-methylbutoxy)pyrazolo[1,5-a]pyridine-3-carboxamido)-4-methylphenyl)-2H-tetrazol-2-yl)azetidine-1-carboxylate] are 33.7 nM and 23.5.

`Cc1ccc(-c2nnn(C3CC3)n2)cc1NC(=O)c1cnn2ccc(-c3c(C)nn(CCO)c3C)cc12` [Example 208, N-(5-(2-cyclopropyl-2H-tetrazol-5-yl)-2-methylphenyl)-5-(1-(2-hydroxyethyl)-3,5-dimethyl-1H-pyrazol-4-yl)pyrazolo[1,5-a]pyridine-3-carboxamide] gave an IC50 in series [1] of 0.4 nM. The efflux ratio at 2 h, 1 µM in series [2] worked out at 4.1. In the same order, the values of `COCCNc1ccn2ncc(C(=O)Nc3cc(-c4nnn(C5CN(C(=O)OC)C5)n4)c(F)cc3C)c2c1` [Example 114, methyl 3-(5-(2-fluoro-5-(5-((2-methoxyethyl)amino)pyrazolo[1,5-a]pyridine-3-carboxamido)-4-methylphenyl)-2H-tetrazol-2-yl)azetidine-1-carboxylate] are 31.3 nM and 14.6. In the same order, the values of `COCCNc1ccn2ncc(C(=O)Nc3cc(-n4nnc(C5CN(C(=O)OC)C5)n4)ccc3Cl)c2c1` [Example 113, methyl 3-(2-(4-chloro-3-(5-((2-methoxyethyl)amino)pyrazolo[1,5-a]pyridine-3-carboxamido)phenyl)-2H-tetrazol-5-yl)azetidine-1-carboxylate] are 6.4 nM and 3.4. Take `Cc1cc(F)c(-c2nnn(C3CC3)n2)cc1NC(=O)c1cnn2ccc(-c3cnn(CC(C)(C)O)c3C)cc12` [Example 240, N-(5-(2-cyclopropyl-2H-tetrazol-5-yl)-4-fluoro-2-methylphenyl)-5-(1-(2-hydroxy-2-methylpropyl)-5-methyl-1H-pyrazol-4-yl)pyrazolo[1,5-a]pyridine-3-carboxamide]: it took 0.6 nM to reach half-maximal inhibition in series [1] (IC50). In addition, in series [2], the efflux ratio at 2 h, 1 µM stood at 7.4. Taken in the same sequence, the figures for `COC(=O)N1CC(n2nnc(-c3ccc(C)c(NC(=O)c4cnn5ccc(N6CCOCC6)cc45)c3)n2)C1` [Example 69, methyl 3-(5-(4-methyl-3-(5-morpholinopyrazolo[1,5-a]pyridine-3-carboxamido)phenyl)-2H-tetrazol-2-yl)azetidine-1-carboxylate] were 50.1 nM and 11.7. Taken in the same sequence, the figures for `Cc1ccc(-n2nnc(C3CC3)n2)cc1NC(=O)c1cnn2ccc(-c3cnn(CC(C)(C)O)c3)cc12` [Example 225, N-(5-(5-cyclopropyl-2H-tetrazol-2-yl)-2-methylphenyl)-5-(1-(2-hydroxy-2-methylpropyl)-1H-pyrazol-4-yl)pyrazolo[1,5-a]pyridine-3-carboxamide] were 1.7 nM and 3.3. On to `COCCNc1ccn2ncc(C(=O)Nc3cc(-c4nnn([C@H]5C[C@H](CO)C5)n4)c(F)cc3C)c2c1` [Example 202, N-(4-fluoro-5-(2-((1r,3r)-3-(hydroxymethyl)cyclobutyl)-2H-tetrazol-5-yl)-2-methylphenyl)-5-((2-methoxyethyl)amino)pyrazolo[1,5-a]pyridine-3-carboxamide], for which the IC50 in series [1] is 14.8 nM. For the same compound, the efflux ratio at 2 h, 1 µM in series [2] was found to be 19.1.

In series [1], `Cc1nn(C[C@H]2CN(C)CCO2)c(C)c1-c1ccn2ncc(C(=O)Nc3cc(-c4nnn(C5CC5)n4)ccc3Cl)c2c1` [Example 274, (R)-N-(2-chloro-5-(2-cyclopropyl-2H-tetrazol-5-yl)phenyl)-5-(3,5-dimethyl-1-((4-methylmorpholin-2-yl)methyl)-1H-pyrazol-4-yl)pyrazolo[1,5-a]pyridine-3-carboxamide] registered an IC50 of 0.6 nM. Besides, the efflux ratio at 2 h, 1 µM in series [2] turned out to be 1.7. As for `Cc1cnn(-c2ccc(C)c(NC(=O)c3cnn4ccc(-c5cnn(C[C@H]6CNCCO6)c5)cc34)c2)n1` [Example 205, (R)—N-(2-methyl-5-(4-methyl-2H-1,2,3-triazol-2-yl)phenyl)-5-(1-(morpholin-2-ylmethyl)-1H-pyrazol-4-yl)pyrazolo[1,5-a]pyridine-3-carboxamide], in series [2], the efflux ratio at 2 h, 1 µM is 33.1. `Cc1ccc(-c2nnn(CCOCC(F)(F)F)n2)cc1NC(=O)c1cnn2ccc(-c3cn[nH]c3)cc12` [Example 197, N-(2-methyl-5-(2-(2-(2,2,2-trifluoroethoxy)ethyl)-2H-tetrazol-5-yl)phenyl)-5-(1H-pyrazol-4-yl)pyrazolo[1,5-a]pyridine-3-carboxamide]: in series [2], the efflux ratio at 2 h, 1 µM is 41.

A word on the IC50: it is the concentration that gives 50% inhibition. A higher IC50 goes with lower potency.
